Test results as given in ChEMBL document CHEMBL5620394, “Synthesis of new antiproliferative 1,3,4-substituted-pyrrolo[3,2-c]quinoline derivatives, biological and in silico insights” (Eur J Med Chem, 2023).
Calls of active or inactive are those of the source. No cut-off for these calls is given here.

Assays:
LOX IMVI = assay: Antiproliferative activity against human LOX IMVI cells assessed as cell growth at 10 uM incubated for 48 hrs by sulforhodamine B assay relative to control; format: functional; conditions: read-out: Activity
MCF7 [1] = assay: Induction of apoptosis in human MCF7 cells assessed as increase in ROS production at 5 to 25 uM by H2DCFDA staining based flow cytometric analysis; format: functional, cell-based; conditions: dose 5-25 µM
MDA-MB-468 = assay: Antiproliferative activity against human MDA-MB-468 cells assessed as cell growth at 10 uM incubated for 48 hrs by sulforhodamine B assay relative to control; format: functional; conditions: read-out: Activity
UO-31 = assay: Antiproliferative activity against human UO-31 cells assessed as cell growth at 10 uM incubated for 48 hrs by sulforhodamine B assay relative to control; format: functional; conditions: read-out: Activity
NCI-H522 = assay: Antiproliferative activity against human NCI-H522 cells assessed as cell growth at 10 uM incubated for 48 hrs by sulforhodamine B assay relative to control; format: functional; conditions: read-out: Activity
A549 = assay: Antiproliferative activity against human A549 cells assessed as cell growth at 10 uM incubated for 48 hrs by sulforhodamine B assay relative to control; format: functional; conditions: read-out: Activity
MOLT-4 = assay: Antiproliferative activity against human MOLT-4 cells assessed as cell growth at 10 uM incubated for 48 hrs by sulforhodamine B assay relative to control; format: functional; conditions: read-out: Activity
MDA-MB-231 [2] = assay: Growth inhibition of human MDA-MB-231 cells at 10 uM incubated for 72 hrs by cell counter analysis relative to control; format: functional; conditions: read-out: GI
MCF7 [3] = assay: Growth inhibition of human MCF7 cells at 25 uM incubated for 24 hrs by cell counter analysis relative to control; format: functional; conditions: read-out: GI
EKVX = assay: Antiproliferative activity against human EKVX cells assessed as cell growth at 10 uM incubated for 48 hrs by sulforhodamine B assay relative to control; format: functional; conditions: read-out: Activity
MCF7 [4] = assay: Antiproliferative activity against human MCF7 cells assessed as cell growth at 10 uM incubated for 48 hrs by sulforhodamine B assay relative to control; format: functional; conditions: read-out: Activity
MDA-MB-231 [5] = assay: Growth inhibition of human MDA-MB-231 cells at 25 uM incubated for 24 hrs by cell counter analysis relative to control; format: functional; conditions: read-out: GI
SK-OV-3 = assay: Antiproliferative activity against human SK-OV-3 cells assessed as cell growth at 10 uM incubated for 48 hrs by sulforhodamine B assay relative to control; format: functional; conditions: read-out: Activity
ACHN = assay: Antiproliferative activity against human ACHN cells assessed as cell growth at 10 uM incubated for 48 hrs by sulforhodamine B assay relative to control; format: functional; conditions: read-out: Activity
CAKI-1 = assay: Antiproliferative activity against human CAKI-1 cells assessed as cell growth at 10 uM incubated for 48 hrs by sulforhodamine B assay relative to control; format: functional; conditions: read-out: Activity
RPMI-8226 = assay: Antiproliferative activity against human RPMI-8226 cells assessed as cell growth at 10 uM incubated for 48 hrs by sulforhodamine B assay relative to control; format: functional; conditions: read-out: Activity
MCF7 [6] = assay: Inhibition of colony formation in human MCF7 cells incubated for 72 hrs by crystal violet staining assay; format: functional, cell-based
HCT-15 = assay: Antiproliferative activity against human HCT-15 cells assessed as cell growth at 10 uM incubated for 48 hrs by sulforhodamine B assay relative to control; format: functional; conditions: read-out: Activity
K562 = assay: Antiproliferative activity against human K562 cells assessed as cell growth at 10 uM incubated for 48 hrs by sulforhodamine B assay relative to control; format: functional; conditions: read-out: Activity
HOP-62 = assay: Antiproliferative activity against human HOP-62 cells assessed as cell growth at 10 uM incubated for 48 hrs by sulforhodamine B assay relative to control; format: functional; conditions: read-out: Activity
MCF7 [7] = assay: Growth inhibition of human MCF7 cells at 50 uM incubated for 24 hrs by cell counter analysis relative to control; format: functional; conditions: read-out: GI
SNB-75 = assay: Antiproliferative activity against human SNB-75 cells assessed as cell growth at 10 uM incubated for 48 hrs by sulforhodamine B assay relative to control; format: functional; conditions: read-out: Activity
MCF7 [8] = assay: Induction of cell cycle arrest in human MCF7 cells assessed as increase in accumulation of cells at G2/M phase at 10 to 25 uM incubated for 72 hrs by propidium iodide staining based flow cytometry analysis; format: functional; conditions: dose 10-25 µM
MCF7 [9] = assay: Induction of cell cycle arrest in human MCF7 cells assessed as increase in accumulation of cells at sub-G1 phase at 5 uM incubated for 72 hrs by propidium iodide staining based flow cytometry analysis; format: functional
NCI-H226 = assay: Antiproliferative activity against human NCI-H226 cells assessed as cell growth at 10 uM incubated for 48 hrs by sulforhodamine B assay relative to control; format: functional; conditions: read-out: Activity
MDA-MB-231 [10] = assay: Growth inhibition of human MDA-MB-231 cells at 25 uM incubated for 72 hrs by cell counter analysis relative to control; format: functional; conditions: read-out: GI
MCF7 [11] = assay: Induction of cell cycle arrest in human MCF7 cells assessed as increase in accumulation of cells at S phase at 25 uM incubated for 72 hrs by propidium iodide staining based flow cytometry analysis; format: functional
[12] = Growth inhibition of human MCF-10A cells at 50 uM incubated for 24 to 48 hrs by cell counter analysis relative to control; format: toxicity, cell-based; conditions: time 24-48 hrs, read-out: GI
HCT-116 = assay: Antiproliferative activity against human HCT-116 cells assessed as cell growth at 10 uM incubated for 48 hrs by sulforhodamine B assay relative to control; format: functional; conditions: read-out: Activity
MCF7 [13] = assay: Induction of cell cycle arrest in human MCF7 cells assessed as increase in accumulation of cells at sub-G1 phase at 10 uM incubated for 72 hrs by propidium iodide staining based flow cytometry analysis; format: functional
MCF7 [14] = assay: Growth inhibition of human MCF7 cells at 10 uM incubated for 24 hrs by cell counter analysis relative to control; format: functional; conditions: read-out: GI
MCF7 [15] = assay: Growth inhibition of human MCF7 cells at 25 uM incubated for 72 hrs by cell counter analysis relative to control; format: functional; conditions: read-out: GI
IGROV-1 = assay: Antiproliferative activity against human IGROV-1 cells assessed as cell growth at 10 uM incubated for 48 hrs by sulforhodamine B assay relative to control; format: functional; conditions: read-out: Activity
T47D = assay: Antiproliferative activity against human T47D cells assessed as cell growth at 10 uM incubated for 48 hrs by sulforhodamine B assay relative to control; format: functional; conditions: read-out: Activity
MDA-MB-231 [16] = assay: Growth inhibition of human MDA-MB-231 cells at 50 uM incubated for 24 hrs by cell counter analysis relative to control; format: functional; conditions: read-out: GI
MDA-MB-231 [17] = assay: Antiproliferative activity against human MDA-MB-231 cells assessed as cell growth at 10 uM incubated for 48 hrs by sulforhodamine B assay relative to control; format: functional; conditions: read-out: Activity
[18] = Growth inhibition of human MCF-10A cells at 10 uM incubated for 72 hrs by cell counter analysis relative to control; format: toxicity, cell-based; conditions: read-out: GI
[19] = Growth inhibition of human MCF-10A cells at 25 uM incubated for 24 to 48 hrs by cell counter analysis relative to control; format: toxicity, cell-based; conditions: time 24-48 hrs, read-out: GI
UACC-257 = assay: Antiproliferative activity against human UACC-257 cells assessed as cell growth at 10 uM incubated for 48 hrs by sulforhodamine B assay relative to control; format: functional; conditions: read-out: Activity
MDA-MB-231 [20] = assay: Growth inhibition of human MDA-MB-231 cells at 10 uM incubated for 24 hrs by cell counter analysis relative to control; format: functional; conditions: read-out: GI
[21] = Growth inhibition of human MCF-10A cells at 10 uM incubated for 24 hrs by cell counter analysis relative to control; format: toxicity, cell-based; conditions: read-out: GI
PC-3 = assay: Antiproliferative activity against human PC-3 cells assessed as cell growth at 10 uM incubated for 48 hrs by sulforhodamine B assay relative to control; format: functional; conditions: read-out: Activity
MDA-MB-231 [22] = assay: Growth inhibition of human MDA-MB-231 cells at 50 uM incubated for 72 hrs by cell counter analysis relative to control; format: functional; conditions: read-out: GI
MCF7 [23] = assay: Induction of cell cycle arrest in human MCF7 cells assessed as decrease in accumulation of cells at G0/G1 phase incubated for 72 hrs by propidium iodide staining based flow cytometry analysis; format: functional
MCF7 [24] = assay: Induction of cell cycle arrest in human MCF7 cells assessed as increase in accumulation of cells at G2/M phase at 5 uM incubated for 72 hrs by propidium iodide staining based flow cytometry analysis; format: functional
MDA-MB-435 = assay: Antiproliferative activity against human MDA-MB-435 cells assessed as cell growth at 10 uM incubated for 48 hrs by sulforhodamine B assay relative to control; format: functional; conditions: read-out: Activity
MCF7 [25] = assay: Growth inhibition of human MCF7 cells at 50 uM incubated for 72 hrs by cell counter analysis relative to control; format: functional; conditions: read-out: GI
SF-295 = assay: Antiproliferative activity against human SF-295 cells assessed as cell growth at 10 uM incubated for 48 hrs by sulforhodamine B assay relative to control; format: functional; conditions: read-out: Activity
KM12 = assay: Antiproliferative activity against human KM12 cells assessed as cell growth at 10 uM incubated for 48 hrs by sulforhodamine B assay relative to control; format: functional; conditions: read-out: Activity
MCF7 [26] = assay: Growth inhibition of human MCF7 cells at 10 uM incubated for 72 hrs by cell counter analysis relative to control; format: functional; conditions: read-out: GI
SR = assay: Antiproliferative activity against human SR cells assessed as cell growth at 10 uM incubated for 48 hrs by sulforhodamine B assay relative to control; format: functional; conditions: read-out: Activity

CC(=O)c1c(C)[nH]c2c1c(-c1ccc3c(c1)OCO3)nc1ccccc12
growth at 10 µM (LOX IMVI): 86.5% | Activity (MCF7 [1]): Active | growth at 10 µM (MDA-MB-468): 59.5% | growth at 10 µM (UO-31): 26.4% | growth at 10 µM (NCI-H522): 101% | growth at 10 µM (A549): 81.7% | growth at 10 µM (MOLT-4): 107% | inhibition of growth at 10 µM (MDA-MB-231 [2]): 28% | inhibition of growth at 25 µM (MCF7 [3]): 38% | growth at 10 µM (EKVX): 88.3% | growth at 10 µM (MCF7 [4]): 41.5% | inhibition of growth at 25 µM (MDA-MB-231 [5]): 48% | growth at 10 µM (SK-OV-3): 88.8% | growth at 10 µM (ACHN): 92.4% | growth at 10 µM (CAKI-1): 58.9% | growth at 10 µM (RPMI-8226): 90.3% | inhibition (MCF7 [6]): Dose-Dependent Effect | growth at 10 µM (HCT-15): 69.5% | growth at 10 µM (K562): 76.8% | growth at 10 µM (HOP-62): 67.5% | inhibition of growth at 50 µM (MCF7 [7]): 54% | growth at 10 µM (SNB-75): 46.5% | Activity (MCF7 [8]): Active | Activity (MCF7 [9]): Active | growth at 10 µM (NCI-H226): 65.6% | inhibition of growth at 25 µM (MDA-MB-231 [10]): 35% | Activity (MCF7 [11]): Active | inhibition at 50 µM [12]: 63% | growth at 10 µM (HCT-116): 84.3% | Activity (MCF7 [13]): Active | inhibition of growth at 10 µM (MCF7 [14]): 32% | inhibition of growth at 25 µM (MCF7 [15]): 41% | growth at 10 µM (IGROV-1): 60.1% | growth at 10 µM (T47D): 70.3% | inhibition of growth at 50 µM (MDA-MB-231 [16]): 60% | growth at 10 µM (MDA-MB-231 [17]): 82.2% | inhibition at 72 h, 10 µM [18]: 11% | inhibition at 25 µM [19]: 42% | growth at 10 µM (UACC-257): 73.9% | inhibition of growth at 10 µM (MDA-MB-231 [20]): 37% | inhibition at 24 h, 10 µM [21]: 14% | growth at 10 µM (PC-3): 75.8% | inhibition of growth at 50 µM (MDA-MB-231 [22]): 74% | Activity (MCF7 [23]): Dose-Dependent Effect | Activity (MCF7 [24]): inactive | growth at 10 µM (MDA-MB-435): 42.1% | inhibition of growth at 50 µM (MCF7 [25]): 70% | growth at 10 µM (SF-295): 91.1% | growth at 10 µM (KM12): 74.6% | inhibition of growth at 10 µM (MCF7 [26]): 25% | growth at 10 µM (SR): 31.6%
